Tests used:
Format in all cases: biochemical
EGFR = EGFR (Homo sapiens, UniProt P00533); test: Inhibition of a panel of kinases, in vitro HotSpot kinase assay: EGFR; settings: D-compounds panel data; 1 μM ATP
Method: (§1) The degree of inhibition of a panel of kinases is determined using the in vitro HotSpot kinase assay (purified enzymes, ^33P-ATP, an appropriate substrate and 1 μM ATP).

BTK-WT = molecular target: T1, BTK-WT (Homo sapiens, UniProt Q06187); test: Btk in vitro inhibitory activity (one of Method A TR-FRET, Method B electrophoretic mobility shift, Method C radiometric filter binding); settings: D-compounds panel data; read-out: IC50 BTK-WT
T1 construct: purified from insect cells as a full-length construct containing an N-terminal 6X-His tag; His6 (N); made in house; host or cells: insect cells (baculovirus Sf21 in Method B)

SRC = SRC (Homo sapiens, UniProt P12931); test: Inhibition of a panel of kinases, in vitro HotSpot kinase assay: SRC; settings: D-compounds panel data; 1 μM ATP
Method: as §1

LCK = LCK (Homo sapiens, UniProt P06239); test: Inhibition of a panel of kinases, in vitro HotSpot kinase assay: LCK; settings: D-compounds panel data; 1 μM ATP; read-out: IC50 LCK
ITK = molecular target: T2, ITK (Homo sapiens, UniProt Q08881); test: Inhibition of a panel of kinases, in vitro HotSpot kinase assay: ITK; settings: D-compounds panel data; 1 μM ATP
T2 sequence (Q08881 1-620): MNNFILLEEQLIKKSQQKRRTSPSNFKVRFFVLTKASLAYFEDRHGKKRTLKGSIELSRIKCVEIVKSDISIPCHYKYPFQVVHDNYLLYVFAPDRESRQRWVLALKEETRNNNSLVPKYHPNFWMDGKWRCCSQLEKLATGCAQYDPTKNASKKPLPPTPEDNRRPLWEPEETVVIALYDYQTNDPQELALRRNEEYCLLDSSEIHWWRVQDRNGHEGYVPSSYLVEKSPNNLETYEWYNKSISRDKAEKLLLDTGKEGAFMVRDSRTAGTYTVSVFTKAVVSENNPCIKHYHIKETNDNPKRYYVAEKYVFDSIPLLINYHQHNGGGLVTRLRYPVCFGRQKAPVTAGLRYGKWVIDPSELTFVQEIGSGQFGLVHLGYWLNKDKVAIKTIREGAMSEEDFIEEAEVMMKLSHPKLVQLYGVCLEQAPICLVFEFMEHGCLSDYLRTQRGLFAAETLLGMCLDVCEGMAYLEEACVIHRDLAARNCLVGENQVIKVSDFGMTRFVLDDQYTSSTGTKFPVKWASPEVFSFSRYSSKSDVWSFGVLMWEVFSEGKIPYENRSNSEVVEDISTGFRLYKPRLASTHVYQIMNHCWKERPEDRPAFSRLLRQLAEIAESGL
Method: as §1

Sequence of SRC (P12931 whole entry): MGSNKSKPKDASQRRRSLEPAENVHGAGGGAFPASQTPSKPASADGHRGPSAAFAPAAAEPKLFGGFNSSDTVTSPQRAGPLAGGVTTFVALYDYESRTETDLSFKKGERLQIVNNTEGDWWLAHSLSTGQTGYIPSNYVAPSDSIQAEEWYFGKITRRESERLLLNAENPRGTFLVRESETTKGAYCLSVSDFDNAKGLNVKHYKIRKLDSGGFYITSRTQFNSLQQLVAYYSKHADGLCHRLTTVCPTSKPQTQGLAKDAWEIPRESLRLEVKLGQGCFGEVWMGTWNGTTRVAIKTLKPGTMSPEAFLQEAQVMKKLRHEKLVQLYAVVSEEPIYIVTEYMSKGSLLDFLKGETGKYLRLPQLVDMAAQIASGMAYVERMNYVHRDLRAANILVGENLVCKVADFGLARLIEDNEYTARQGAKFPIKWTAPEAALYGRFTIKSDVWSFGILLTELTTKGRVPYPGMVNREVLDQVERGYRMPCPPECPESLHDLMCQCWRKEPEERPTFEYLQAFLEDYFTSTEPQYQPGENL
T1 sequence (Q06187 whole entry): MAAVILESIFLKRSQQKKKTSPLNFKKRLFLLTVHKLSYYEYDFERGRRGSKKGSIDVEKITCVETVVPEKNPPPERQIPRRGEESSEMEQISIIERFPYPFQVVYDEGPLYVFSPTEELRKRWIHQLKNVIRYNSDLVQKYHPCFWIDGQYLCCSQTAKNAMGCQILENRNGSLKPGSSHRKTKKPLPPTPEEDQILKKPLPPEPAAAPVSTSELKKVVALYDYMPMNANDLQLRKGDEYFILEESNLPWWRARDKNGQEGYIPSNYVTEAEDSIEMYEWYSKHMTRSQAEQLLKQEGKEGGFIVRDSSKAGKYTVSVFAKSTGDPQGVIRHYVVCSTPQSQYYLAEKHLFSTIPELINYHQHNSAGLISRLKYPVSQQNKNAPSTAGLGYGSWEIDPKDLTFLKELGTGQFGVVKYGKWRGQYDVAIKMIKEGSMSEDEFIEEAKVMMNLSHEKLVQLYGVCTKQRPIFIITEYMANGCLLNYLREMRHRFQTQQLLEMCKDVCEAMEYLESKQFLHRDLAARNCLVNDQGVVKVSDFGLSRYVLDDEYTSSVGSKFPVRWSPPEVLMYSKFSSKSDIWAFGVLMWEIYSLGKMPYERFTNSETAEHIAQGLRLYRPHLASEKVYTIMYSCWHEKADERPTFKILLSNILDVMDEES
Sequence of LCK (P06239 whole entry): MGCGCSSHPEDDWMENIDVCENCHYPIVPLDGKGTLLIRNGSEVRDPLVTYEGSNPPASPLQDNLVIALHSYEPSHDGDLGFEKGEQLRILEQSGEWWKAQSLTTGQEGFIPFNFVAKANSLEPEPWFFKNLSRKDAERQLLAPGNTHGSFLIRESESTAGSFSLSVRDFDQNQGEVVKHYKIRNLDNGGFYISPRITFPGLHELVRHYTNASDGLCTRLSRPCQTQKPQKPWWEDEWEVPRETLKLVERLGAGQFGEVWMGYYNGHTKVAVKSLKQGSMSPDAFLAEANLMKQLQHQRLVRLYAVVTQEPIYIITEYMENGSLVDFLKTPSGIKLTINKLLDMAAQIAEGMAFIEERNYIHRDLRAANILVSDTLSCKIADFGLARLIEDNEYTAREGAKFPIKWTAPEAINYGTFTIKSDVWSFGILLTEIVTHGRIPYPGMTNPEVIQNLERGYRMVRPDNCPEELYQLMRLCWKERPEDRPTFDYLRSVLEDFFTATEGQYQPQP
Sequence of EGFR (P00533 25-1210): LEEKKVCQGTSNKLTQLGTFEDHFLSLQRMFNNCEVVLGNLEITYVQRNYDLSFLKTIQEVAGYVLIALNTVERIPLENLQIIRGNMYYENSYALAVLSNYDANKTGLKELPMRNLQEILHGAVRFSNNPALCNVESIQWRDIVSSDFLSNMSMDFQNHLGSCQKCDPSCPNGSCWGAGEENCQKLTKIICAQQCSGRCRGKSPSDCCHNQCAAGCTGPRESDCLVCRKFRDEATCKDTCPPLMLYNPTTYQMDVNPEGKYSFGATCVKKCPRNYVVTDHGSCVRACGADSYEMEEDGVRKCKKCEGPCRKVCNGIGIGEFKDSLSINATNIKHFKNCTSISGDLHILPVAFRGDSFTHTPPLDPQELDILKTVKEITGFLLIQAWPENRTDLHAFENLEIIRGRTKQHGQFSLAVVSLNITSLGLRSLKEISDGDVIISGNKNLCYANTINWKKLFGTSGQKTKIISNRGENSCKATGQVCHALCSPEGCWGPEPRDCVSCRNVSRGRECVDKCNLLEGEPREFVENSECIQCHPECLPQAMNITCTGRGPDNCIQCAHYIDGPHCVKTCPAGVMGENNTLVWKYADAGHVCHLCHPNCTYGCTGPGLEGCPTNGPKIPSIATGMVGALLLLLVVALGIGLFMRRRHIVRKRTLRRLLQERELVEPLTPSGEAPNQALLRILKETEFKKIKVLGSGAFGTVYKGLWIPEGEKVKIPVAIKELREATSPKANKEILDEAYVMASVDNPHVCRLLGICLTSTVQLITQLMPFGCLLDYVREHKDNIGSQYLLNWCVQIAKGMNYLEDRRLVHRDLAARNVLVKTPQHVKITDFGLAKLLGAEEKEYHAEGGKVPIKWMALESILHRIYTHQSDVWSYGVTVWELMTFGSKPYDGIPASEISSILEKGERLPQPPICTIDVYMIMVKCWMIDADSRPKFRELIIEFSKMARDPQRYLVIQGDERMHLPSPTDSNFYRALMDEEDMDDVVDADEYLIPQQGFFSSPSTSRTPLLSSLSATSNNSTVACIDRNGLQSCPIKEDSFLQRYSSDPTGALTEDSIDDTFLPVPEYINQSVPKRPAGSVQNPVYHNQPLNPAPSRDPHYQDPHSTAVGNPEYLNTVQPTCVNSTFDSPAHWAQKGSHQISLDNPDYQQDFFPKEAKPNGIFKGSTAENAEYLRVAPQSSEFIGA

C[C@@H]1[C@H](NC(=O)c2ccc(C3CC3)cc2F)CCCN1c1cnc(C(N)=O)c(Nc2ccc(N3CCN(C4CCCC4)CC3)cc2)n1 [Example D-5, 3-{[4-(4-cyclopentylpiperazin-1-yl)phenyl]amino}-5-[(2R,3R)-3-(4-cyclopropyl-2-fluorobenzamido)-2-methylpiperidin-1-yl]pyrazine-2-carboxamide]
IC50 (EGFR): 0.1 to 1 µM
IC50 (BTK-WT): ≤ 0.01 µM
IC50 (SRC): 0.01 to 0.1 µM
IC50 (LCK): 0.1 to 1 µM
IC50 (ITK): 0.1 to 1 µM

C[C@@H]1[C@H](n2ccc3cc(C4CC4)ccc3c2=O)CCCN1c1cnc(C(N)=O)c(Nc2ccc(N3CCN(C)CC3)cc2)n1 [Example D-6, 5-[(2R,3R)-3-(6-cyclopropyl-1-oxo-1,2-dihydroisoquinolin-2-yl)-2-methylpiperidin-1-yl]-3-{[4-(4-methylpiperazin-1-yl)phenyl]amino}pyrazine-2-carboxamide]
IC50 (EGFR): 0.1 to 1 µM
IC50 (BTK-WT): ≤ 0.01 µM
IC50 (SRC): 0.01 to 0.1 µM
IC50 (LCK): 0.01 to 0.1 µM
IC50 (ITK): 0.1 to 1 µM

CC(C)N1CCN(c2ccc(Nc3nc(N4CCC[C@@H](NC(=O)c5ccc(C6CC6)cc5F)[C@H]4C)cnc3C(N)=O)cc2)CC1 [Example D-7, 5-[(2R,3R)-3-(4-cyclopropyl-2-fluorobenzamido)-2-methylpiperidin-1-yl]-3-({4-[4-(propan-2-yl)piperazin-1-yl]phenyl}amino)pyrazine-2-carboxamide]
IC50 (EGFR): 0.1 to 1 µM
IC50 (BTK-WT): ≤ 0.01 µM
IC50 (SRC): 0.01 to 0.1 µM
IC50 (LCK): 0.01 to 0.1 µM
IC50 (ITK): 0.01 to 0.1 µM

C[C@@H]1[C@H](NC(=O)c2ccc(C3CC3)cc2F)CCCN1c1cnc(C(N)=O)c(Nc2ccc(N3CCN(C)CC3)cn2)n1 [Example D-8, 5-[(2R,3R)-3-(4-cyclopropyl-2-fluorobenzamido)-2-methylpiperidin-1-yl]-3-{[5-(4-methylpiperazin-1-yl)pyridin-2-yl]amino}pyrazine-2-carboxamide]
IC50 (EGFR): > 10 µM
IC50 (BTK-WT): 0.01 to 0.1 µM
IC50 (SRC): > 10 µM
IC50 (LCK): > 10 µM
IC50 (ITK): > 10 µM

C[C@@H]1[C@H](NC(=O)Nc2cccnc2)CCCN1c1cnc(C(N)=O)c(Nc2ccc(C3(C)CCN(C4CCCC4)CC3)cc2)n1 [Example D-9, 3-{[4-(1-cyclopentyl-4-methylpiperidin-4-yl)phenyl]amino}-5-[(2R,3R)-2-methyl-3-{[(pyridin-3-yl)carbamoyl]amino}piperidin-1-yl]pyrazine-2-carboxamide]
IC50 (EGFR): 0.01 to 0.1 µM
IC50 (BTK-WT): ≤ 0.01 µM
IC50 (SRC): ≤ 0.01 µM
IC50 (LCK): < 0.01 µM
IC50 (ITK): ≤ 0.01 µM

C[C@@H]1[C@H](NC(=O)c2ccc(C3CC3)cc2F)CCCN1c1cnc(C(N)=O)c(Nc2ccc(N3CCN(C)CC3=O)cc2)n1 [Example D-10, 5-[(2R,3R)-3-(4-cyclopropyl-2-fluorobenzamido)-2-methylpiperidin-1-yl]-3-{[4-(4-methyl-2-oxopiperazin-1-yl)phenyl]amino}pyrazine-2-carboxamide]
IC50 (EGFR): 0.1 to 1 µM
IC50 (BTK-WT): ≤ 0.01 µM
IC50 (SRC): 0.1 to 1 µM
IC50 (LCK): 0.1 to 1 µM
IC50 (ITK): 0.1 to 1 µM

C[C@@H]1[C@H](NC(=O)c2ccc(C(F)(F)F)cc2)CCCN1c1cnc(C(N)=O)c(Nc2ccc(N3CCN(C)CC3)cc2)n1 [Example D-11, 5-[(2R,3R)-2-methyl-3-[4-(trifluoromethyl)benzamido]piperidin-1-yl]-3-{[4-(4-methylpiperazin-1-yl)phenyl]amino}pyrazine-2-carboxamide]
IC50 (EGFR): 0.1 to 1 µM
IC50 (BTK-WT): ≤ 0.01 µM
IC50 (SRC): 0.01 to 0.1 µM
IC50 (LCK): 0.01 to 0.1 µM
IC50 (ITK): 0.1 to 1 µM

C[C@@H]1[C@H](NC(=O)c2ccc(OC(F)(F)F)cc2)CCCN1c1cnc(C(N)=O)c(Nc2cnn(C)c2)n1 [Example D-95, 3-[(1-methyl-1H-pyrazol-4-yl)amino]-5-[(2R,3R)-2-methyl-3-[4-(trifluoromethoxy)benzamido]piperidin-1-yl]pyrazine-2-carboxamide]
IC50 (EGFR): 0.1 to 1 µM
IC50 (BTK-WT): ≤ 0.01 µM
IC50 (SRC): 0.1 to 1 µM
IC50 (LCK): 0.1 to 1 µM
IC50 (ITK): 0.1 to 1 µM

C[C@@H]1[C@H](NC(=O)c2ccc(C3CC3)cc2)CCCN1c1cnc(C(N)=O)c(Nc2ccc(N3CCC(F)(F)CC3)cc2)n1 [Example D-96, 5-[(2R,3R)-3-(4-cyclopropylbenzamido)-2-methylpiperidin-1-yl]-3-{[4-(4,4-difluoropiperidin-1-yl)phenyl]amino}pyrazine-2-carboxamide]
IC50 (EGFR): > 10 µM
IC50 (BTK-WT): 0.01 to 0.1 µM
IC50 (SRC): > 10 µM
IC50 (LCK): > 10 µM
IC50 (ITK): > 10 µM

C[C@@H]1[C@H](NC(=O)c2ccc(C3CC3)cc2)CCCN1c1cnc(C(N)=O)c(Nc2ccc(N3CCN(CC(F)(F)F)CC3)cc2)n1 [Example D-97, 5-[(2R,3R)-3-(4-cyclopropylbenzamido)-2-methylpiperidin-1-yl]-3-({4-[4-(2,2,2-trifluoroethyl)piperazin-1-yl]phenyl}amino)pyrazine-2-carboxamide]
IC50 (EGFR): > 10 µM
IC50 (BTK-WT): 0.01 to 0.1 µM
IC50 (SRC): 0.1 to 1 µM
IC50 (LCK): > 10 µM
IC50 (ITK): 1 to 10 µM

C[C@@H]1[C@H](NC(=O)c2ccc(C3CC3)cc2)CCCN1c1cnc(C(N)=O)c(Nc2ccc(OC3CCN(CC(F)(F)F)CC3)cc2)n1 [Example D-98, 5-[(2R,3R)-3-(4-cyclopropylbenzamido)-2-methylpiperidin-1-yl]-3-[(4-{[1-(2,2,2-trifluoroethyl)piperidin-4-yl]oxy}phenyl)amino]pyrazine-2-carboxamide]
IC50 (EGFR): > 10 µM
IC50 (BTK-WT): ≤ 0.01 µM
IC50 (SRC): > 10 µM
IC50 (LCK): > 10 µM
IC50 (ITK): 1 to 10 µM

C[C@@H]1[C@H](NC(=O)c2ccc(C3CC3)cc2)CCCN1c1cnc(C(N)=O)c(Nc2ccc(N3CCC4(CC3)COC4)cc2)n1 [Example D-99, 5-[(2R,3R)-3-(4-cyclopropylbenzamido)-2-methylpiperidin-1-yl]-3-[(4-{2-oxa-7-azaspiro[3.5]nonan-7-yl}phenyl)amino]pyrazine-2-carboxamide]
IC50 (EGFR): 1 to 10 µM
IC50 (BTK-WT): ≤ 0.01 µM
IC50 (SRC): 0.1 to 1 µM
IC50 (LCK): 0.1 to 1 µM
IC50 (ITK): 0.1 to 1 µM

C[C@@H]1[C@H](NC(=O)c2ccc(C3CC3)cc2)CCCN1c1cnc(C(N)=O)c(Nc2ccc(N3CCC(C(C)(C)O)CC3)cc2)n1 [Example D-100, 5-[(2R,3R)-3-(4-cyclopropylbenzamido)-2-methylpiperidin-1-yl]-3-({4-[4-(2-hydroxypropan-2-yl)piperidin-1-yl]phenyl}amino)pyrazine-2-carboxamide]
IC50 (EGFR): 1 to 10 µM
IC50 (BTK-WT): ≤ 0.01 µM
IC50 (SRC): 0.01 to 0.1 µM
IC50 (LCK): 0.1 to 1 µM
IC50 (ITK): 0.1 to 1 µM

C[C@@H]1[C@H](NC(=O)c2ccc(C3CC3)cc2)CCCN1c1cnc(C(N)=O)c(Nc2ccc(OC3CCN(C4CCCC4)CC3)cc2)n1 [Example D-101, 3-({4-[(1-cyclopentylpiperidin-4-yl)oxy]phenyl}amino)-5-[(2R,3R)-3-(4-cyclopropylbenzamido)-2-methylpiperidin-1-yl]pyrazine-2-carboxamide]
IC50 (EGFR): 0.1 to 1 µM
IC50 (BTK-WT): ≤ 0.01 µM
IC50 (SRC): 0.01 to 0.1 µM
IC50 (LCK): 0.01 to 0.1 µM
IC50 (ITK): 0.01 to 0.1 µM

C[C@@H]1[C@H](NC(=O)N(C)C)CCCN1c1cnc(C(N)=O)c(Nc2ccc(OC3CCN(C4CCCC4)CC3)cc2)n1 [Example D-102, 3-({4-[(1-cyclopentylpiperidin-4-yl)oxy]phenyl}amino)-5-[(2R,3R)-3-[(dimethylcarbamoyl)amino]-2-methylpiperidin-1-yl]pyrazine-2-carboxamide]
IC50 (EGFR): 0.1 to 1 µM
IC50 (BTK-WT): ≤ 0.01 µM
IC50 (SRC): 0.01 to 0.1 µM
IC50 (LCK): 0.01 to 0.1 µM
IC50 (ITK): 0.01 to 0.1 µM

C[C@@H]1[C@H](NC(=O)c2ccc(C3CC3)cc2)CCCN1c1cnc(C(N)=O)c(Nc2ccc(N3CCN(C)CC3)cc2F)n1 [Example D-103, 5-[(2R,3R)-3-(4-cyclopropylbenzamido)-2-methylpiperidin-1-yl]-3-{[2-fluoro-4-(4-methylpiperazin-1-yl)phenyl]amino}pyrazine-2-carboxamide]
IC50 (EGFR): 0.1 to 1 µM
IC50 (BTK-WT): ≤ 0.01 µM
IC50 (SRC): 1 to 10 µM
IC50 (LCK): 0.1 to 1 µM
IC50 (ITK): 0.1 to 1 µM

C[C@@H]1[C@H](NC(=O)c2ccc(C3CC3)cc2)CCCN1c1cnc(C(N)=O)c(Nc2ccc(OC3C[C@H]4CC[C@@H](C3)N4C)cc2)n1 (stereo partly drawn) [Example D-104, 5-[(2R,3R)-3-(4-cyclopropylbenzamido)-2-methylpiperidin-1-yl]-3-[(4-{[(1R,5S)-8-methyl-8-azabicyclo[3.2.1]octan-3-yl]oxy}phenyl)amino]pyrazine-2-carboxamide]
IC50 (EGFR): 0.1 to 1 µM
IC50 (BTK-WT): ≤ 0.01 µM
IC50 (SRC): 0.01 to 0.1 µM
IC50 (LCK): 0.01 to 0.1 µM
IC50 (ITK): 0.01 to 0.1 µM
